The results in this text go back to US6878751B1, “Administration of resveratrol to treat inflammatory respiratory disorders” (Imperial College of Science Technology and Medicine, priority 2000, dated 2005).

In data set [1] the test system is IL-8 release, BEAS-2B cells. Kind of data set: IL-8 release (ELISA) in IL-1β stimulated BEAS-2B cells. Type of data set: cell-based. As to conditions: Homo sapiens, 1 ng/ml IL-1β, read-out: EC50 for inhibition of the release of IL-8. As for the experimental part:
The human airway epithelial cell line A549 may be employed to study resveratrol inhibition of the release of IL-8 (interleukin 8) and GM-CSF (granulocyte macrophage-colony stimulating factor) by a 1 ng/ml stimulation with IL-1β (interleukin 1β). A549 cells, BEAS-2B cells and 16HBE-16o^− cells were stimulated with 1 ng/ml levels of IL-1β in the presence of resveratrol.
Cells, including the A549 cells, were cultured in Dulbecco's modified Eagle's medium (DMEM) 10% (v/v) fetal calf serum (FCS), 100 μg/ml penicillin and 100 μg/ml streptomycin. IL-8 release was measured by commercially available ELISA kit (R&D Systems).
Background: In an ELISA, binding on a coated surface is turned into a signal by an enzyme label.

Data set [2] concerns TRE dependent transcription. Kind of data set: TRE (AP-1) luciferase reporter in stably transfected A549 cells. The format is cell-based, human. The method, then: The expression of inflammatory genes was then evaluated in cells transformed with luciferase reporter genes containing sites for transcription factors (Tf, Tfs). The A549 cells were stably transfected by routine methods with luciferase reporters containing the transcription factors NF-κB, TRE (AP-1, TPA responsive element) and CRE (cAMP responsive element). Luciferase activity of cell lysates resuspended in […] cell lysis buffer mixed (40 mml resuspended lysate: 40 mml assay reagent) was measured using the Luciferase Assay System (Promega), with emitted light measured by a Turner DesignsTD-20/20 luminometer (Steptech Instruments Ltd., Stevenage, U.K.)

For data set [3], the system named is Steroid naive patients suffering from COPD. In words: Oral or inhaled resveratrol vs inhaled glucocorticoids in COPD, steroid naive patients (Example 5). Type of data set: in vivo, human. As to conditions: 12 to 24 months. The text has this:
Steroid naive patients suffering from different COPDs patients are selected and divided into populations according to the COPD. Chronic bronchitis populations and emphysema populations are appropriately studied. The populations are divided in terms of progression of their COPD into subpopulations early or mild, mid-stage or moderate, and advanced impairment of lung function. The study is generally patterned after the asthma studies with modifications appropriate to the clinical and histopathologic evaluation of COPD disease, and the references listed in the preceding examples may be applied as appropriate. One major difference is that the COPD study should last for 1 to 2 years or longer, because of the chronic nature of COPD. Each subpopulation is divided equally and randomly into three groups. […]
(§1) Patients are medically monitored for clinical symptoms of COPD throughout the study, including frequency and severity of hypoxemic and respiratiry acidotic exacerbations. […] In addition exhaled nitric oxide (NO) and carbon monoxide (CO) levels may be measured at more frequent intervals, such as every other week. Forced expiratory volume (FEV) and forced inspiratory volume (FIV) are also evaluated to measure airway patency as a direct measure of clinical morbidity and to determine correlation the histopathologic and other indicators of clinical disease. […]

Data set [4] has as its system Asthmatic steroid naive children. In words: Resveratrol substitution for glucocorticoids in asthmatic steroid naive children (Example 6). Type of data set: in vivo, human. As for the experimental part: Asthmatic steroid naive children with asthma disease severe enough to require chronic pulmonary steroid therapy are divided randomly and blindly into three groups. The duration of the study should be long, as pulmonary steroids for asthma are a chronic therapy, thus 1 to 2 years or more is optimal. The first group is treated with oral resveratrol, with the group subdivided randomly and blindly into four approximately equal subgroups that receive either 0 (placebo), 200, 2000, or 3000 mg/day resveratrol for about 12 to 24 months in oral doses of 0, 50, 500, or 750 mg administered 4 times daily for about 12 to 24 months. […]
as §1, with “The methods of the following references may be used in the evaluation of asthmatic disease: Wohl et al. (2000) N. Engl. […] Patients” for “Patients”, “asthma” for “COPD”, “acute asthma attacks.” for “hypoxemic and respiratiry acidotic exacerbations.”, “disease, such as exhaled NO.” for “disease.”

The structures appear in SMILES notation.

For the molecule `Oc1ccc(/C=C/c2cc(O)cc(O)c2)cc1` [Resveratrol, 3,5,4′-trihydroxystilbene], the EC50 (usually the concentration giving half of the maximal effect) in data set [1] is 111 ± 2.9 µM; in data set [2] (Homo sapiens, read-out: EC50 for inhibition of TRE dependent transcription) it was 7 ± 4 µM. In addition, in data set [2], the “extent of inhibition of TRE dependent transcription” value worked out at 85%. Also, the “efficacy in treating COPD compared with inhaled steroids” value in data set [3] (oral or pulmonary resveratrol vs pulmonary budenoside) was “more effective for treating COPD than inhaled steroids”. The “systemic effects compared with inhaled glucocorticosteroids” value in data set [3] (oral or pulmonary resveratrol) is given as “fewer systemic effects”. Besides, the “efficacy as substitute for inhaled steroids in treating asthma” value in data set [4] (oral or pulmonary resveratrol vs pulmonary budenoside, 12 to 24 months) is given as “effective as substitutes for antiinflammatory treatment with inhaled steroids in treating asthma”. For the same molecule, in data set [4] (oral or pulmonary resveratrol, including suppression of growth), the “systemic side effects compared with inhaled glucocorticoids” value is recorded as “reduced systemic side effects”.
